Laboratory results taken from paper PMC10743086, “Immunofluorescence-Based Assay for High-Throughput Analysis of Multidrug Resistance Markers in Non-Small Cell Lung Carcinoma Patient-Derived Cells” (Diagnostics, 2023).

How the values were obtained:
Format in all cases: cell-based, human
[1] = tested on: ABCC1 expression in non-cancer cells (CK8/18-); assay: Immunofluorescence assay of ABCC1 expression in patient-derived NSCLC cultures, non-cancer cells; settings: sample TR58, chemotherapeutics, 7 days
Protocol: (§1) Tissue samples were collected during surgery, and the NSCLC diagnosis, histological grade, stage, necrosis, and lymph node invasion status were determined by histopathological analysis. […] The surgical specimens were placed in a sterile tube containing antibiotic-antimycotic solution (Sigma-Aldrich Chemie GmbH, Taufkirchen, Germany) and immediately transported to the research laboratory for further processing.
(§2) Upon arrival, the tissue was manually chopped with a surgical blade in a Petri dish under sterile conditions. The samples were cut into 3–5 mm pieces and further dissociated using the Tumor Dissociation Kit (Miltenyi Biotec, Bergisch Gladbach, Germany). The Tumor Dissociation Kit was used to dissociate the cells from the tumor tissue according to the manufacturer’s instructions. The samples were incubated in a 37 °C orbital shaker (KS 4000 ic control, IKA, Königswinter, Germany) at 300 rpm for 90 min. After incubation, the dissociated tissue was placed in DMEM/Ham’s F12 (1:3 ratio) growth medium supplemented with 5% fetal bovine serum (Corning, NY, USA), antibiotic-antimycotic solution, 4 µg/mL hydrocortisone (Sigma-Aldrich Chemie GmbH, Taufkirchen, Germany), 1 µg/mL insulin (Sigma-Aldrich Chemie GmbH, Taufkirchen, Germany), 10 ng/mL epidermal growth factor (BioLegend, San Diego, CA, USA), and 24 µg/mL adenine (Sigma-Aldrich Chemie GmbH, Taufkirchen, Germany). The DMEM and Ham’s F12 growth media were purchased from Sigma-Aldrich Chemie GmbH (Taufkirchen, Germany).
(§3) The dissociated tissue was cultured in T-25 cell culture flasks until cell attachment was observed before the medium was replaced. If no cell attachment was achieved within 7 days, the sample was discarded. Successful patient-derived cultures were maintained at 37 °C in a humidified atmosphere with 5% CO2 and grown to confluence before undergoing further experiments. […] Partial trypsinization was performed by detaching the fibroblast-like cells with 1 mL of 0.05% trypsin for 1 min at 37 °C, followed by 2 min at room temperature (RT).
(§4) Vinorelbine and pemetrexed were purchased from Selleckchem (Houston, TX, USA). Carboplatin, cisplatin, docetaxel, etoposide, gemcitabine, gefitinib, and paclitaxel were purchased from Sigma-Aldrich Chemie GmbH (Taufkirchen, Germany). The cisplatin, carboplatin, and gemcitabine were dissolved in sterile water, while the etoposide, docetaxel, vinorelbine, paclitaxel, gefitinib, and pemetrexed were dissolved in DMSO and stored at −20 °C. Before treatment, all the stock solutions were freshly diluted in sterile water.
(§5) The primary cells were seeded in black, clear bottom 384-well cell culture microplates (Thermo Fisher Scientific, Waltham, MA, USA) in 50 µL of cell growth medium at a density of 1000 cells per well. The compounds were administered 72 h after seeding. The treatment lasted 7 days.
(§6) The immunofluorescence assay for the quantification of MDR markers was optimized to distinguish cancer cells from stromal cells using a cytokeratin 8/18 (CK8/18) antibody cocktail. The cells were fixed with 4% paraformaldehyde for 20 min at RT and washed three times with PBS using the Wellwash Versa microplate washer (Thermo Fisher Scientific, Waltham, MA, USA). The cells were then blocked with 2% bovine serum albumin (BSA) in PBS for 1 h at RT. […] Co-immunostaining with antibodies against MDR markers was performed to detect the presence of ABCB1, ABCC1, and ABCG2 in both the cancer and stromal cells. […] The secondary antibodies were incubated with the cells at RT for 2 h in the dark. […] Finally, the cells were washed three times with PBS and stored at 4 °C in the dark before imaging.

[2] = tested on: Cancer cells (CK8/18+) of patient-derived NSCLC cultures; assay: Cytotoxicity in patient-derived NSCLC cultures, cancer cells; settings: Homo sapiens, 168 h, 7 days treatment
Protocol: as §1, §2, §3, §4, §5, §6

[3] = tested on: ABCG2 expression in cancer cells (CK8/18+); assay: Immunofluorescence assay of ABCG2 expression in patient-derived NSCLC cultures; settings: 7 days
Protocol: as §1, §2, §3, §4, §5, §6

[4] = tested on: ABCB1 expression in cancer cells (CK8/18+); assay: Immunofluorescence assay of ABCB1 expression in patient-derived NSCLC cultures; settings: 7 days
Protocol: as §1, §2, §3, §4, §5, §6

[5] = culture TR58, cancer cells (CK8/18+)
[6] = culture TR64, cancer cells (CK8/18+)
[7] = culture TR65, cancer cells (CK8/18+)
[8] = culture TR84, cancer cells (CK8/18+)
[9] = culture TR87, cancer cells (CK8/18+)

**Q.** Which results are given for `CC(=O)O[C@@]12CO[C@@H]1C[C@H](O)[C@@]1(C)C(=O)[C@H](O)C3=C(C)[C@@H](OC(=O)[C@H](O)[C@@H](NC(=O)OC(C)(C)C)c4ccccc4)C[C@@](O)([C@@H](OC(=O)c4ccccc4)[C@H]21)C3(C)C` [Docetaxel, docetaxel]?
**A.** ABCC1 expression in CK8/18− cells [1]: elevated; IC50 [2, 5]: 1.31 µM; IC50 [2, 6]: 1.56 µM; IC50 [2, 7]: > 5 µM; IC50 [2, 8]: 1.85 µM; IC50 [2, 9]: > 5 µM; ABCG2 expression [3, 5]: increase (An increase in ABCB1, ABCC1, or ABCG2 expression of at least 20% at a minimum of one concentration is shown in the table.); ABCG2 expression [3, 6]: increase (An increase in ABCB1, ABCC1, or ABCG2 expression of at least 20% at a minimum of one concentration is shown in the table.); ABCG2 expression [3, 7]: no change; ABCG2 expression [3, 8]: increase (An increase in ABCB1, ABCC1, or ABCG2 expression of at least 20% at a minimum of one concentration is shown in the table.); ABCG2 expression [3, 9]: increase (An increase in ABCB1, ABCC1, or ABCG2 expression of at least 20% at a minimum of one concentration is shown in the table.); ABCB1 Expression [4, 5]: no change; ABCB1 Expression [4, 6]: increase (An increase in ABCB1, ABCC1, or ABCG2 expression of at least 20% at a minimum of one concentration is shown in the table.); ABCB1 Expression [4, 7]: no change; ABCB1 Expression [4, 8]: increase (An increase in ABCB1, ABCC1, or ABCG2 expression of at least 20% at a minimum of one concentration is shown in the table.); ABCB1 Expression [4, 9]: increase (An increase in ABCB1, ABCC1, or ABCG2 expression of at least 20% at a minimum of one concentration is shown in the table.)

**Q.** What does the source list for `COc1cc([C@@H]2c3cc4c(cc3[C@@H](O[C@@H]3O[C@@H]5CO[C@@H](C)O[C@H]5[C@H](O)[C@H]3O)[C@H]3COC(=O)[C@H]23)OCO4)cc(OC)c1O` [Etoposide, etoposide]?
**A.** IC50 [2, 5]: 7.13 µM; IC50 [2, 6]: 11.9 µM; IC50 [2, 7]: 25.4 µM; IC50 [2, 8]: 2.98 µM; IC50 [2, 9]: 13 µM; ABCG2 expression [3, 5]: no change; ABCG2 expression [3, 6]: increase (An increase in ABCB1, ABCC1, or ABCG2 expression of at least 20% at a minimum of one concentration is shown in the table.); ABCG2 expression [3, 7]: increase (An increase in ABCB1, ABCC1, or ABCG2 expression of at least 20% at a minimum of one concentration is shown in the table.); ABCG2 expression [3, 8]: increase (An increase in ABCB1, ABCC1, or ABCG2 expression of at least 20% at a minimum of one concentration is shown in the table.); ABCG2 expression [3, 9]: increase (An increase in ABCB1, ABCC1, or ABCG2 expression of at least 20% at a minimum of one concentration is shown in the table.); ABCB1 Expression [4, 5]: no change; ABCB1 Expression [4, 6]: increase (An increase in ABCB1, ABCC1, or ABCG2 expression of at least 20% at a minimum of one concentration is shown in the table.); ABCB1 Expression [4, 7]: increase (An increase in ABCB1, ABCC1, or ABCG2 expression of at least 20% at a minimum of one concentration is shown in the table.); ABCB1 Expression [4, 8]: increase (An increase in ABCB1, ABCC1, or ABCG2 expression of at least 20% at a minimum of one concentration is shown in the table.); ABCB1 Expression [4, 9]: increase (An increase in ABCB1, ABCC1, or ABCG2 expression of at least 20% at a minimum of one concentration is shown in the table.)

**Q.** How did the IC50 [2, 5] turn out when `Nc1nc2[nH]cc(CCc3ccc(C(=O)N[C@@H](CCC(=O)O)C(=O)O)cc3)c2c(=O)[nH]1` [Pemetrexed, pemetrexed] was run?
**A.** 181 µM

**Q.** What about the IC50 [2, 6] of the same compound?
**A.** 252 µM

**Q.** And the IC50 [2, 7]?
**A.** 231 µM

**Q.** And the IC50 [2, 8]?
**A.** > 300 µM

**Q.** What about the IC50 [2, 9] of the same compound?
**A.** > 300 µM

**Q.** What about the ABCG2 expression [3, 5] of the same compound?
**A.** no change

**Q.** And the ABCG2 expression [3, 6]?
**A.** no change

**Q.** And the ABCG2 expression [3, 7]?
**A.** no change

**Q.** And the ABCG2 expression [3, 8]?
**A.** increase (An increase in ABCB1, ABCC1, or ABCG2 expression of at least 20% at a minimum of one concentration is shown in the table.)

**Q.** And the ABCG2 expression [3, 9]?
**A.** no change

**Q.** What about the ABCB1 Expression [4, 5] of the same compound?
**A.** no change

**Q.** And the ABCB1 Expression [4, 6]?
**A.** no change

**Q.** What about the ABCB1 Expression [4, 7] of the same compound?
**A.** no change

**Q.** What about the ABCB1 Expression [4, 8] of the same compound?
**A.** increase (An increase in ABCB1, ABCC1, or ABCG2 expression of at least 20% at a minimum of one concentration is shown in the table.)

**Q.** What about the ABCB1 Expression [4, 9] of the same compound?
**A.** increase (An increase in ABCB1, ABCC1, or ABCG2 expression of at least 20% at a minimum of one concentration is shown in the table.)

**Q.** What does the source list for `CCC1=C[C@@H]2CN(C1)Cc1c([nH]c3ccccc13)[C@@](C(=O)OC)(c1cc3c(cc1OC)N(C)[C@H]1[C@@](O)(C(=O)OC)[C@H](OC(C)=O)[C@]4(CC)C=CCN5CC[C@]31[C@@H]54)C2` [Vinorelbine]?
**A.** IC50 [2, 5]: 0.129 µM; IC50 [2, 6]: 0.172 µM; IC50 [2, 7]: > 1 µM; IC50 [2, 8]: 0.176 µM; IC50 [2, 9]: > 1 µM; ABCG2 expression [3, 5]: increase (An increase in ABCB1, ABCC1, or ABCG2 expression of at least 20% at a minimum of one concentration is shown in the table.); ABCG2 expression [3, 6]: increase (An increase in ABCB1, ABCC1, or ABCG2 expression of at least 20% at a minimum of one concentration is shown in the table.); ABCG2 expression [3, 7]: increase (An increase in ABCB1, ABCC1, or ABCG2 expression of at least 20% at a minimum of one concentration is shown in the table.); ABCG2 expression [3, 8]: increase (An increase in ABCB1, ABCC1, or ABCG2 expression of at least 20% at a minimum of one concentration is shown in the table.); ABCG2 expression [3, 9]: increase (An increase in ABCB1, ABCC1, or ABCG2 expression of at least 20% at a minimum of one concentration is shown in the table.); ABCB1 Expression [4, 5]: no change; ABCB1 Expression [4, 6]: increase (An increase in ABCB1, ABCC1, or ABCG2 expression of at least 20% at a minimum of one concentration is shown in the table.); ABCB1 Expression [4, 7]: increase (An increase in ABCB1, ABCC1, or ABCG2 expression of at least 20% at a minimum of one concentration is shown in the table.); ABCB1 Expression [4, 8]: increase (An increase in ABCB1, ABCC1, or ABCG2 expression of at least 20% at a minimum of one concentration is shown in the table.); ABCB1 Expression [4, 9]: increase (An increase in ABCB1, ABCC1, or ABCG2 expression of at least 20% at a minimum of one concentration is shown in the table.)
